{
  "source": "patent US8822541B2",
  "about": "“Use of targeted nitroxide agents in mitigating or treating radiation injury” (University of Pittsburgh—Of the Commonwealth System of …, priority 2008, dated 2014)",
  "key": {"[1]": {"tested_on": "32D cl 3 mouse hematopoietic progenitor cell line", "test": "Irradiation survival curves of 32D cl 3 cells with JP4-039 (Example 10)", "format": "cell-based", "settings": "10 μM, control 1.29", "description": "Irradiation survival curves were performed on cells from the 32D cl 3 mouse hematopoietic progenitor cell line, incubated in 10 μM JP4-039 for 1 hour before irradiation, or plated in methycellulose containing 10 μM JP4-030 after irradiation. Cells were irradiated from 0 to 8 Gy, plated in 0.8% methycellulose containing media, and incubated for 7 days at 37° C. Colonies of greater than 50 cells were counted and data analyzed by linear quadratic and single-hit, multi-target models."}, "[2]": {"tested_on": "32D cl 3 cells", "test": "Clonogenic radiation survival curves of 32D cl 3 cells (PLDR study)", "format": "cell-based, mouse", "parameters": "key to D0: D0 in Gy, from single-hit multitarget model", "description": "(§1) 32D cl 3 cells were resuspended at 1×10^5 cells/mL in 10×100-mm tubes and divided into three groups: radiation only, post-irradiation treatment with 10 μM JP4-039, and post-irradiation treatment with 10 μM TEMPO. Cells were irradiated to doses ranging from 0 to 8 Gy and were plated immediately after irradiation.\nas §1, with “5×10^5” for “1×10^5”, “then incubated in exponentially growing colonies (flasks) for 24, 48 and 72 h in a high-humidity incubator at 37° C. with 95% air/5% CO2.” for “plated immediately after irradiation.”\n32D cl 3 cells were resuspended at 5×10^5 cells/mL in 10×100-mm tubes. Cells were irradiated to doses ranging from 0 to 8 Gy and were then centrifuged at 1500 RPM for 10 minutes and incubated in vertical tubes held tight in pellets with a total of 5×10^5 cells/pellet for 24, 48 and 72 h in a high-humidity incubator at 37° C. with 95% air/5% CO2.\nCells incubated under either logarithmic or PLDR conditions were resuspended at 24, 48 and 72 h after irradiation, and cell viability was assessed using an automated cell viability counter (Beckman Coulter, Fullerton, Calif.). Subsequently, at 24, 48, 72 h, cells in pellets and flasks were resuspended and treated with 10 μM JP4-039, 10 μM TEMPO, or no treatment and were plated in triplicate in semisolid methylcellulose-containing medium at viable cell concentrations ranging from 500-40,000 cells/mL. Cells were incubated in a high-humidity incubator at 37° C. with 95% air/5% CO2 for 7 d and colonies of greater than 50 cells were scored according to published methods (Epperly M W, Gretton J E, Sikora C A, Jefferson M, Bernarding M, Nie S, et al.: Mitochondrial localization of superoxide, dismutase is required for decreasing radiation-induced cellular damage. Radiat Res. 160: 568-578, 2003).\nData from radiation survival curves were analyzed using the linear-quadratic and single-hit, multitarget models (Epperly M, et al., Prevention of late effects of irradiation lung damage by manganese superoxide dismutase gene therapy. Gene Ther. 5: 196-208, 1998). Results are presented as the mean±standard error of the mean from at least three measurements. Student's t test and two-way ANOVA were used to compare means of different groups where appropriate."}, "[3]": {"tested_on": "32D cl 3 cells", "test": "EPR-based analysis of nitroxide distribution and partitioning in subcellular fractions", "format": "cell-based, mouse", "settings": "10 μM, 1 h", "description": "To determine nitroxide partitioning and distribution in subcellular compartments, electron paramagnetic resonance (EPR) was utilized. 32D cl 3 cells were incubated for 24 h under pelleted or flask growth conditions. After incubation, 150×10^6 cells were resuspended at a concentration of 10×10^6 cells/mL and were treated with 10 μM JP4-039 or 10 μM TEMPO for 1 h (Wipf P, et al., Mitochondrial targeting of selective electron scavengers: synthesis and biological analysis of hemigramicidin-TEMPO conjugates. J Am Chem. Soc. 127: 12460-12461, 2005).\nSubcellular compartments were isolated by differential centrifugation. Cells were centrifuged at 1500 RPM for 10 min and the supernatant (media) was removed. The remaining whole cell pellet was washed with cold PBS, resuspended in 0.3 mL of hypotonic buffer solution, and incubated on ice for 45 min. Cells were then lysed by three rapid freeze-thaw cycles in liquid nitrogen for 30 sec and water at 25° C. for 3 min. Lysed cells were centrifuged at 3000×g for 5 min to isolate nucleus and cellular debris. Supernatant was centrifuged at 12000×g for 45 min to isolate mitochondria from cytoplasm (Wipf P, et al., Mitochondrial targeting of selective electron scavengers: synthesis and biological analysis of hemigramicidin-TEMPO conjugates. J Am Chem. Soc. 127: 12460-12461, 2005).\nEach cellular fraction (media, whole cell pellet, nucleus/cellular debris, mitochondria, and cytoplasm) was mixed with DMSO (1:1 vol/vol) and 2 mM of potassium ferricyanide (K3Fe(CN)6) to convert […] to EPR-detectable radical forms (Behringer W, et al., Antioxidant Tempol enhances hypothermic cerebral preservation during prolonged cardiac arrest in dogs. J Cereb Blood Flow Metab. 22: 105-117, 2002). 70 μL of the homogenate was loaded into Teflon tubing (0.8 mm internal diameter) (Alpha Wire Corp., Elizabeth, N.J.) which was folded in half and placed into an open ESR quartz tube (inner diameter of 3.0 mm). EPR measurements were made in triplicate using a JEOL-RE1X EPR spectrometer (Jeol, Tokyo, Japan) under the following conditions: 334.7 mT center field, 5 mT sweep width, 0.079 mT field modulation, 20 mW microwave power, 0.1 sec time constant, and 2 min scan time at 22.5° C. Utilizing signal magnitude and isolated volumes, amount and concentration of JP4-039 or TEMPO were calculated for each sample."}, "[4]": {"settings": "0 hours, 10 μM post-irradiation"}},
  "note": "“And” between values parts separate entries of the source, which are not always exact repeats. Equal values may be shown once.",
  "data": [
    {"smiles": "CC(C)C[C@@H](/C=C/CC(=O)NC1CC(C)(C)N([O])C(C)(C)C1)NC(=O)OC(C)(C)C", "note": "[JP4-039, TEMPO-4-yl-(S,E)-5-(tert-butoxycarbonylamino)-7-methyloct-3-enamide]", "values": [
      {"measurement": "ñ (shoulder on the survival curve)", "setting": "[1]; drug added after irradiation", "result": "4.55±0.47"},
      {"measurement": "ñ (shoulder on the survival curve)", "setting": "[1]; drug added before irradiation", "result": "5.25±0.84"},
      {"measurement": "D0", "setting": "[2]; [4]", "result": "0.91 ± 0.11"},
      {"measurement": "Ñ", "setting": "[2]; [4]", "result": "37.43±7.50"},
      {"measurement": "radiation mitigation", "setting": "[2]; 48 or 72 h after irradiation", "result": "no statistically significant radiation mitigation"},
      {"measurement": "D0", "setting": "[2]; 24 hours (Flask), 10 μM", "result": "1.22 ± 0.16"},
      {"measurement": "Ñ", "setting": "[2]; 24 hours (Flask), 10 μM", "result": "10.35±0.33"},
      {"measurement": "D0", "setting": "[2]; 24 hours (Pellet), 10 μM", "result": "1.12 ± 0.27"},
      {"measurement": "Ñ", "setting": "[2]; 24 hours (Pellet), 10 μM", "result": "18.49±3.90"},
      {"measurement": "cellular EPR signal detected in mitochondria", "setting": "[3]; exponential growth", "result": "5.0±0.3", "unit": "%"},
      {"measurement": "cellular EPR signal in nucleus and/or cellular debris", "setting": "[3]; exponential growth", "result": "37.2±0.3", "unit": "%"},
      {"measurement": "cellular EPR signal in the cytoplasm", "setting": "[3]; exponential growth", "result": "19.4±1.6", "unit": "%"},
      {"measurement": "concentration in the nucleus and cellular debris", "setting": "[3]; exponential growth", "result": "10.1 ± 0.1", "unit": "µM"},
      {"measurement": "concentration in the whole cell pellet", "setting": "[3]; exponential growth", "result": "12.6 ± 0.2", "unit": "µM"},
      {"measurement": "mitochondrial concentration", "setting": "[3]; exponential growth", "result": "8.5 ± 0.5", "unit": "µM"},
      {"measurement": "cellular EPR signal in nucleus and/or cellular debris", "setting": "[3]; pelleted cells", "result": "33.2±3.8", "unit": "%"},
      {"measurement": "cellular EPR signal in the cytoplasm", "setting": "[3]; pelleted cells", "result": "29.5±0.7", "unit": "%"},
      {"measurement": "cellular EPR signal localized to the mitochondria", "setting": "[3]; pelleted cells", "result": "3.9±0.2", "unit": "%"},
      {"measurement": "mitochondrial concentration", "setting": "[3]; pelleted cells", "result": "10.90 ± 0.48 µM and 10.9 µM"}
    ]}
  ]
}
